20 compounds from patent publication US8921376B2, “Pyrrolopyridines useful as inhibitors of protein kinase” (Vertex Pharmaceuticals Incorporated, priority 2005, dated 2014) can be followed below.

Holding throughout (type): biochemical
Common to all, as to details: Table 6; enzyme inhibition data (Ki)

The target of one assay is T1, JAK3 (Homo sapiens, UniProt P52333).
T1 sequence (P52333 1-1124): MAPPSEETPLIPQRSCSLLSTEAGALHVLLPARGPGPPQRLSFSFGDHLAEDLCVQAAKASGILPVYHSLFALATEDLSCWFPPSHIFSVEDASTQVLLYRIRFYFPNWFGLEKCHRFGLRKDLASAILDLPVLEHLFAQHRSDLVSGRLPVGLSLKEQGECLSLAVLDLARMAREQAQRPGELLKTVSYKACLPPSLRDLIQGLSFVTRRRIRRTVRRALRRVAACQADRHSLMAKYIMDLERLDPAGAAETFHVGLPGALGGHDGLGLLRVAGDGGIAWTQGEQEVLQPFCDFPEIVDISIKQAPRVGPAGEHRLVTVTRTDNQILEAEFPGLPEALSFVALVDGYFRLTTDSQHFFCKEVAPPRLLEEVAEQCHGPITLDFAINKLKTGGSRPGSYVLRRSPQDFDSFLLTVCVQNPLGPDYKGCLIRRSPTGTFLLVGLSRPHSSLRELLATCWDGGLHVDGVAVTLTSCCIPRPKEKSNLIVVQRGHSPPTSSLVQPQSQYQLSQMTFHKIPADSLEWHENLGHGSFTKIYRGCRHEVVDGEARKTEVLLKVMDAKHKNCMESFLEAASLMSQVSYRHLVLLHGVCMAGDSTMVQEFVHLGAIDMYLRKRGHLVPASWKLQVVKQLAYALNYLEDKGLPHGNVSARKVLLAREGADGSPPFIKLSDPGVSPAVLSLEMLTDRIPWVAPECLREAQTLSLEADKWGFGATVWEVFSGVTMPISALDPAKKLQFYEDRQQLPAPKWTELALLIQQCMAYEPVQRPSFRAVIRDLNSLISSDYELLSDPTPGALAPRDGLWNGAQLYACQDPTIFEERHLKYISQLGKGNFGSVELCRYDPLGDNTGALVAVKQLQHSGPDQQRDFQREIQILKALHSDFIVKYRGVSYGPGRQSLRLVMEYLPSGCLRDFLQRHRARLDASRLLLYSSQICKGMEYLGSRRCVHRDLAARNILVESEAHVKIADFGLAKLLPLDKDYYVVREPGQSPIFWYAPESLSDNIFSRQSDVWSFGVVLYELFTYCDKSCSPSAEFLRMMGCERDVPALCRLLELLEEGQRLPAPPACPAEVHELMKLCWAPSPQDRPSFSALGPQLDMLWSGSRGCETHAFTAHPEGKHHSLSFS
Briefly: JAK3 inhibition assay (33P incorporation into poly(Glu)4Tyr). The procedure, abridged: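 After TCA quench and filter harvest, scintillation counting of 33P measured phosphorylation of poly(Glu)4Tyr (1 μM) by 1 nM JAK3. The 20-min, 25° C. reaction contained 5 μM ATP (200 μCi/μmole) in pH 7.4 HEPES buffer with 10 mM MgCl2.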

Another assay concerns the target JAK2 (Homo sapiens, UniProt O60674). Put plainly: JAK2 inhibition assay (as Example 3 with JAK-2 enzyme). The procedure, abridged: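 In HEPES pH 7.4 buffer with 10 mM MgCl2, 1 mM DTT, 25 mM NaCl and 0.01% BSA, JAK2 enzyme phosphorylated poly(Glu)4Tyr (final 15 μM) using 33P-ATP (final 12 μM) for 20 min at room temperature (25 °C). Reactions stopped with TCA; incorporated 33P measured by scintillation after filtration.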

A further assay concerns the target ROCK I (Homo sapiens, UniProt Q13464). Briefly: ROCK-I inhibition assay (radioactive enzyme assay, MBP substrate). The procedure, abridged: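 Human ROCK at 5 nM phosphorylated 27 μM myelin basic protein with 13 μM [γ-33P]ATP (final) in HEPES pH 7.5, MgCl2, NaCl, DTT and 1.5% DMSO. Reactions ran 2 h at room temperature before TCA quench and filter-plate scintillation counting. After background subtraction, data were fit to give Ki(app).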

pKi: −log10 of the molar value. Some results are limits rather than exact numbers.

JAK2, sequence (O60674 whole entry): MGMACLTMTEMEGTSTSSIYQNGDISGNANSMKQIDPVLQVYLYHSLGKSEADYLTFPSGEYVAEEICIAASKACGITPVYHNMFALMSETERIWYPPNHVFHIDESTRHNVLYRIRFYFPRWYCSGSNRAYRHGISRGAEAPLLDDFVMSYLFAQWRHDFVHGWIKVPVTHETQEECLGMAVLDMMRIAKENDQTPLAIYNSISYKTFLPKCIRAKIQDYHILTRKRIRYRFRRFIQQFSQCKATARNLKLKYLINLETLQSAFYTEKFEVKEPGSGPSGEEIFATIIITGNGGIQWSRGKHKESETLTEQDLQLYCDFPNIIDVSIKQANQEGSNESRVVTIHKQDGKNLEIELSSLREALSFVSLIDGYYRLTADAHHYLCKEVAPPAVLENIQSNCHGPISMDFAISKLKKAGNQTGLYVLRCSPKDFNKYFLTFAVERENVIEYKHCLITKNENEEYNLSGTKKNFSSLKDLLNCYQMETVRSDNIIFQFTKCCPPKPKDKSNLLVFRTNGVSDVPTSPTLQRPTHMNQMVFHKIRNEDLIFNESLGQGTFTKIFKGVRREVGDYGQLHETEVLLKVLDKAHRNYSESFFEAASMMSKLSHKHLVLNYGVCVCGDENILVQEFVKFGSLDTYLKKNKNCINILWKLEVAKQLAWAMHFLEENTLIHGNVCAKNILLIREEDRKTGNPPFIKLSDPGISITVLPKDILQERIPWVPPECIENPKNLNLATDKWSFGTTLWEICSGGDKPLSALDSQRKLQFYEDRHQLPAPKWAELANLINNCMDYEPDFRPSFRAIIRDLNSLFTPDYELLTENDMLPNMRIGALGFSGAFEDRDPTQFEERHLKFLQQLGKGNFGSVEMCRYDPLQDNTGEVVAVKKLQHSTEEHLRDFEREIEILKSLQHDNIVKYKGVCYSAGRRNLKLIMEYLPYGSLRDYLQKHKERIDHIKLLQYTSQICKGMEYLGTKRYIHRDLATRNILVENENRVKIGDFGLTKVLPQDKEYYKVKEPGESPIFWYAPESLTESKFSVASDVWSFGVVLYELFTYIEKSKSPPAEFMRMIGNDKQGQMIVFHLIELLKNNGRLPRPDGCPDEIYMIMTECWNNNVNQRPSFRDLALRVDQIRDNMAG
ROCK I, sequence (Q13464 whole entry): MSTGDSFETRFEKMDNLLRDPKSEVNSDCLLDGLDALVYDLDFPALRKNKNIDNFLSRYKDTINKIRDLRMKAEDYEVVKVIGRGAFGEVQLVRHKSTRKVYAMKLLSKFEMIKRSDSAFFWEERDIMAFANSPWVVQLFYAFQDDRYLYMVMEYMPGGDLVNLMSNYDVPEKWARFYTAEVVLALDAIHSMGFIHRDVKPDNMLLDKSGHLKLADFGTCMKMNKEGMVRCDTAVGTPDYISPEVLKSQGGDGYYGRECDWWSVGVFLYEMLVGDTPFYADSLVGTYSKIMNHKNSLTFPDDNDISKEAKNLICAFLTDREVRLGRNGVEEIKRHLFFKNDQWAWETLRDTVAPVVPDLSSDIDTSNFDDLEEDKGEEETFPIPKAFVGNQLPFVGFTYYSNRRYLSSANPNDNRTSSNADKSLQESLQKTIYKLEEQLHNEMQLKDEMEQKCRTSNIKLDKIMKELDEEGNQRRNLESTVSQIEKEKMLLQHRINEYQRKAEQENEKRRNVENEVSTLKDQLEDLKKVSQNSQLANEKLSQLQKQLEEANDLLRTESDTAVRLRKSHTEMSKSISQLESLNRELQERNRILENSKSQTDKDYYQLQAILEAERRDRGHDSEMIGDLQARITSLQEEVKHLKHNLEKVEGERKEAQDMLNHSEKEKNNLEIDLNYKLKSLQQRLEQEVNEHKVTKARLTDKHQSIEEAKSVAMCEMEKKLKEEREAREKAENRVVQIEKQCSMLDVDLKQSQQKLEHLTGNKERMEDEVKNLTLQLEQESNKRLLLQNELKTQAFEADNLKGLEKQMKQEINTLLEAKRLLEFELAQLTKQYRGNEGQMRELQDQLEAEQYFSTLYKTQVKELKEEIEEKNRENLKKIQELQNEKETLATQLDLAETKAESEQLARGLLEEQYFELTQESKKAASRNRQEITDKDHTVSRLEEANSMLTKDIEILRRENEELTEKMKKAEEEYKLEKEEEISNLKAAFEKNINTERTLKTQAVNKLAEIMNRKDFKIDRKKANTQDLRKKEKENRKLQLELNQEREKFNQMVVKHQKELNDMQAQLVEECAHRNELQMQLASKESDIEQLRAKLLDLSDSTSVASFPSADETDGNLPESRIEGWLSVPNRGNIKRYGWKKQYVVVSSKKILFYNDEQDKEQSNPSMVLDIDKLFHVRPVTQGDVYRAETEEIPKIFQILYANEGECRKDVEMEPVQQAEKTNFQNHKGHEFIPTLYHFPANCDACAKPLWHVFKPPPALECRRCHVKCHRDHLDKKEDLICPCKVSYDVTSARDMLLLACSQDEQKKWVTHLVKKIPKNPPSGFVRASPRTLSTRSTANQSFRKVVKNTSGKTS

As usually defined, the pKi is the negative decadic logarithm of the Ki, by convention in mol/L. Turning to `CN(CCC#N)C(=O)c1ccc(-c2ccnc3[nH]ccc23)s1` [compound 322], the pKi at JAK3, at JAK2 and at ROCK I was above 6.30 each time.

Regarding `C#CCN(C)C(=O)c1ccc(-c2ccnc3[nH]ccc23)s1` [compound 323], the pKi on JAK3, at JAK2 and on ROCK I was above 6.30 each time.

Turning to `COCCN(CCOC)C(=O)c1ccc(-c2ccnc3[nH]ccc23)s1` [compound 324], the pKi at JAK3, at JAK2 and on ROCK I was above 6.30 throughout.

For `CCCN(CCC)C(=O)c1ccc(-c2ccnc3[nH]ccc23)s1` [compound 325], the pKi at JAK3, at JAK2 and on ROCK I was above 6.30 throughout.

For the compound `CC(C)CN(C)C(=O)c1ccc(-c2ccnc3[nH]ccc23)s1` [compound 326], the pKi on JAK3, at JAK2 and on ROCK I was above 6.30 in each case.

`CC(C)CN(CC(C)C)C(=O)c1ccc(-c2ccnc3[nH]ccc23)s1` [compound 327]: the negative logarithm of the Ki (pKi) at JAK3 is 5.30 to 6.30; on JAK2, above 6.30; at ROCK I it was above 6.30.

Regarding `N#CCCN(Cc1ccccc1)C(=O)c1ccc(-c2ccnc3[nH]ccc23)s1` [compound 328], the negative logarithm of the Ki (pKi) at JAK3, at JAK2 and on ROCK I was above 6.30 throughout.

For `CCN(CCC#N)C(=O)c1cc(-c2c(Cl)cnc3[nH]ccc23)c[nH]1` [compound 329], the negative-log Ki (pKi) is above 6.30 at JAK3, above 6.30 at JAK2 and 5.30 to 6.30 on ROCK I.

As for `C=CCN(CC=C)C(=O)c1cc(-c2c(Cl)cnc3[nH]ccc23)c[nH]1` [compound 330], the negative logarithm of the Ki (pKi) is above 6.30 on JAK3, above 6.30 at JAK2 and 5.30 to 6.30 on ROCK I.

Consider `N#CCCN(Cc1cccnc1)C(=O)c1cc(-c2c(Cl)cnc3[nH]ccc23)c[nH]1` [compound 331], for which the negative logarithm of the Ki (pKi) at JAK3 is above 6.30; at JAK2 it was above 6.30; on ROCK I it was 5.30 to 6.30.

As for `CCCCN(CC#N)C(=O)c1cc(-c2c(Cl)cnc3[nH]ccc23)c[nH]1` [compound 332], the figures for the negative logarithm of the Ki (pKi) at JAK3, at JAK2 and at ROCK I were above 6.30, above 6.30 and 5.30 to 6.30, respectively.

Consider `CCN(Cc1ccccn1)C(=O)c1cc(-c2c(Cl)cnc3[nH]ccc23)c[nH]1` [compound 333], for which the pKi at JAK3 was above 6.30; on JAK2, above 6.30; at ROCK I, below 5.40.

For the compound `CCCN(CC1CC1)C(=O)c1cc(-c2c(Cl)cnc3[nH]ccc23)c[nH]1` [compound 334], the results for the pKi on JAK3, at JAK2 and at ROCK I were above 6.30, above 6.30 and 5.30 to 6.30, respectively.

For the compound `CCCN(CCC#N)C(=O)c1cc(-c2c(Cl)cnc3[nH]ccc23)c[nH]1` [compound 335], the pKi is above 6.30 on JAK3, above 6.30 on JAK2 and 5.30 to 6.30 at ROCK I.

As to `CCCCN(CCC#N)C(=O)c1cc(-c2c(Cl)cnc3[nH]ccc23)c[nH]1` [compound 336], the pKi on JAK3 is above 6.30; at JAK2 it was above 6.30; at ROCK I, 5.30 to 6.30.

For `C#CCN(C)C(=O)c1cc(-c2c(Cl)cnc3[nH]ccc23)c[nH]1` [compound 338], the results for the pKi at JAK3, at JAK2 and on ROCK I were above 6.30, above 6.30 and 5.30 to 6.30, respectively.

`COCCN(CCOC)C(=O)c1cc(-c2c(Cl)cnc3[nH]ccc23)c[nH]1` [compound 339]: the pKi on JAK3 was above 6.30; at JAK2, above 6.30; on ROCK I, below 5.40.

Take `CCCN(CCC)C(=O)c1cc(-c2c(Cl)cnc3[nH]ccc23)c[nH]1` [compound 340]: the negative-log Ki (pKi) was above 6.30 at JAK3, above 6.30 at JAK2 and below 5.40 at ROCK I.

With `CC(C)CN(C)C(=O)c1cc(-c2c(Cl)cnc3[nH]ccc23)c[nH]1` [compound 341], the values for the negative logarithm of the Ki (pKi) at JAK3, at JAK2 and on ROCK I were above 6.30, above 6.30 and 5.30 to 6.30, respectively.

For `CC(C)CN(CC(C)C)C(=O)c1cc(-c2c(Cl)cnc3[nH]ccc23)c[nH]1` [compound 342], the pKi is above 6.30 at JAK3, above 6.30 at JAK2 and below 5.40 at ROCK I.
